In patent US20070082339A1, “Methods and compositions for screening for HDAC inhibitory activity” (priority 2005, published 2007):

Test system: A549 cells
Assay: Microarray analysis of gene expression after LAQ824 treatment
Type: cell-based, human
Settings: for Fold change AMP-activated protein kinase family member 5 (ARK5) 204589_at / Fold change ANP32B acidic (leucine-rich) nuclear phosphoprotein 32 family, member B (SSP29) 201305_x_at / Fold change AVEN apoptosis, caspase activation inhibitor (Aven) 219366_at / Fold change B-cell CLL/lymphoma 3 (BCL3) 204908_s_at / Fold change BAI1-associated protein 2 (BAP2, IRSp53) 205293_x_at / Fold change BAI1-associated protein 3 (BAP3, KIAA0734) 204874_x_at / Fold change BAI1-associated protein 3 (BAP3, KIAA0734) 216356_x_at / Fold change BCL2-associated athanogene 2 (BAG-2) 209406_at / Fold change BCL2-interacting killer (apoptosis-inducing) (BP4, NBK, BIP1) 205780_at / Fold change BCL2-like 1 (BCL2L1) 206665_s_at / Fold change BH3 interacting domain death agonist (BID) 204493_at / Fold change Cyclin A2 (CCN1, CCNA) 203418_at / Fold change Cyclin-dependent kinase inhibitor 2D (p19, inhibits CDK4) (INK4D) 210240_s_at / Fold change DEC1-anti apoptosis (BHLHB2) 201169_s_at / Fold change Diphtheria toxin receptor (heparin-binding epidermal growth factor-like growth factor) (DTR) 203821_at / Fold change Early growth response 1 (TIS8, NGFI-A, KROX-24, ZIF-268) 201694_s_at / Fold change GMCL germ cell-less homolog (Drosophila) (GMCL) 218458_at / Fold change Katanin p80 (WD40-containing) subunit B 1 (KAT) 203163_at / Fold change NACHT, leucine rich repeat and PYD containing 1 (PP1044) 218380_at / Fold change Paternally expressed Gene 10 (PEG10) 212092_at / Fold change Paternally expressed Gene 10 (PEG10) 212094_at / Fold change Protein regulator of cytokinesis 1 (PRC1) 218009_s_at / Fold change SKAP55 protein 216899_s_at / Fold change Secreted frizzled-related protein 1 (FRP, SARP2) 202036_s_at / Fold change Secreted frizzled-related protein 1 (FRP, SARP2) 202037_s_at / Fold change Serine/threonine kinase 6 (AIK) 208079_s_at / Fold change Tribbles homolog 3a (TRIB3) 218145_at / Fold change Tumor necrosis factor receptor superfamily, member 6 (TNFRSF6) 215719_x_at / Fold change Tumor necrosis factor receptor superfamily, member 6 (TNFRSF6) 216252_x_at / Fold change Tumor protein p53 (Li-Fraumeni syndrome) 201746_at / Fold change Tumor protein p53 (Li-Fraumeni syndrome) 211300_s_at / Fold change member of the N-myc downregulated gene family (NDRG4) 209159_s_at: A549, 500 nM vs DMSO
Method: The human lung carcinoma cell line A549 is obtained from the American Type Culture Collection (Rockville, Md.) and cultured in F-12K (ATCC, Manassas, Va.), 10% fetal bovine serum, and 1% penicillin/streptomycin (Life Technologies, Inc.). LAQ824 (Novartis) is added directly to the cell medium at a final concentration of 500 nM. Microarray analysis is performed essentially as described previously (Welsh, 2001). Total RNA is prepared from A549 cells treated with LAQ 824 or DMSO for 0.5, 2, 6, 12 and 24 h. Labelled cDNA is prepared and hybridized to Affymetrix U133 oligonucleotide GeneChip® (Affymetrix, Santa Clara, Calif.). The arrays were scanned on an Affymetrix GeneArray scanner and analyzed with GENECHIP Microarray Analysis Suite 5.0 software (MAS5) (Affymetrix). The data (raw data including image files and scanner files (Cel. Files) as well as the MAS5 normalized data are stored in the DEMON Database. The MAS5 normalized data are exported from the database and analyzed using GeneSpring software version 6.1. The genes are filtered for a minimal expression of 100 in at least one condition (the condition being defined as the average the value for the 3 samples corresponding to a given time point and a treatement) The gene expression changes (fold change) are calculated for each time point (t) as follow: (Gene expression level LAQ824 treated—(Average of the 3 replicates) Time (t))/(Gene expression level DMSO treated—(Average of the 3 replicates) Time (t)).
Any fold change <0 indicated a down regulation or reduction of the mRNA production, any fold change >0 indicated an up regulation or increase of mRNA production. Genes are filtered according to the fold change and the statistical significance of the changes (1-way-ANOVA test p<0.05)).

SMILES: O=C(/C=C/c1ccc(CN(CCO)CCc2c[nH]c3ccccc23)cc1)NO [LAQ824, N-Hydroxy-3-[4-[[(2-hydroxyethyl)[2-(1H-indol-3-yl)-ethyl]-amino]methyl]phenyl]-2E-2-propenamide]
- Fold change AMP-activated protein kinase family member 5 (ARK5) 204589_at (12 h): −4.6 fold
- Fold change ANP32B acidic (leucine-rich) nuclear phosphoprotein 32 family, member B (SSP29) 201305_x_at (12 h): −5.1 fold
- Fold change AVEN apoptosis, caspase activation inhibitor (Aven) 219366_at (12 h): −2.6 fold
- Fold change B-cell CLL/lymphoma 3 (BCL3) 204908_s_at (12 h): −5.5 fold
- Fold change BAI1-associated protein 2 (BAP2, IRSp53) 205293_x_at (12 h): 6.8 fold
- Fold change BAI1-associated protein 3 (BAP3, KIAA0734) 204874_x_at (12 h): 15.9 fold
- Fold change BAI1-associated protein 3 (BAP3, KIAA0734) 216356_x_at (12 h): 27.9 fold
- Fold change BCL2-associated athanogene 2 (BAG-2) 209406_at (12 h): −3.3 fold
- Fold change BCL2-interacting killer (apoptosis-inducing) (BP4, NBK, BIP1) 205780_at (12 h): 12.0 fold
- Fold change BCL2-like 1 (BCL2L1) 206665_s_at (12 h): −7.6 fold
- Fold change BH3 interacting domain death agonist (BID) 204493_at (12 h): −3.6 fold
- Fold change Cyclin A2 (CCN1, CCNA) 203418_at (12 h): −2.3 fold
- Fold change Cyclin-dependent kinase inhibitor 2D (p19, inhibits CDK4) (INK4D) 210240_s_at (12 h): 4.8 fold
- Fold change DEC1-anti apoptosis (BHLHB2) 201169_s_at (12 h): −4.8 fold
- Fold change Diphtheria toxin receptor (heparin-binding epidermal growth factor-like growth factor) (DTR) 203821_at (12 h): 13.1 fold
- Fold change Early growth response 1 (TIS8, NGFI-A, KROX-24, ZIF-268) 201694_s_at (12 h): 11.2 fold
- Fold change GMCL germ cell-less homolog (Drosophila) (GMCL) 218458_at (12 h): 3.8 fold
- Fold change Katanin p80 (WD40-containing) subunit B 1 (KAT) 203163_at (12 h): 4.3 fold
- Fold change NACHT, leucine rich repeat and PYD containing 1 (PP1044) 218380_at (12 h): 11.3 fold
- Fold change Paternally expressed Gene 10 (PEG10) 212092_at (12 h): 3.8 fold
- Fold change Paternally expressed Gene 10 (PEG10) 212094_at (12 h): 3.5 fold
- Fold change Protein regulator of cytokinesis 1 (PRC1) 218009_s_at (12 h): −2.5 fold
- Fold change SKAP55 protein 216899_s_at (12 h): 1.8 fold
- Fold change Secreted frizzled-related protein 1 (FRP, SARP2) 202036_s_at (12 h): 3.9 fold
- Fold change Secreted frizzled-related protein 1 (FRP, SARP2) 202037_s_at (12 h): 3.9 fold
- Fold change Serine/threonine kinase 6 (AIK) 208079_s_at (12 h): −2.4 fold
- Fold change Tribbles homolog 3a (TRIB3) 218145_at (12 h): −4.0 fold
- Fold change Tumor necrosis factor receptor superfamily, member 6 (TNFRSF6) 215719_x_at (12 h): −6.3 fold
- Fold change Tumor necrosis factor receptor superfamily, member 6 (TNFRSF6) 216252_x_at (12 h): −4.9 fold
- Fold change Tumor protein p53 (Li-Fraumeni syndrome) 201746_at (12 h): −4.4 fold
- Fold change Tumor protein p53 (Li-Fraumeni syndrome) 211300_s_at (12 h): −3.7 fold
- Fold change member of the N-myc downregulated gene family (NDRG4) 209159_s_at (12 h): 7.3 fold
- Fold change AMP-activated protein kinase family member 5 (ARK5) 204589_at (24 h): −1.9 fold
- Fold change ANP32B acidic (leucine-rich) nuclear phosphoprotein 32 family, member B (SSP29) 201305_x_at (24 h): −7.3 fold
- Fold change AVEN apoptosis, caspase activation inhibitor (Aven) 219366_at (24 h): −8.2 fold
- Fold change B-cell CLL/lymphoma 3 (BCL3) 204908_s_at (24 h): −1.8 fold
- Fold change BAI1-associated protein 2 (BAP2, IRSp53) 205293_x_at (24 h): 3.6 fold
- Fold change BAI1-associated protein 3 (BAP3, KIAA0734) 204874_x_at (24 h): 10.9 fold
- Fold change BAI1-associated protein 3 (BAP3, KIAA0734) 216356_x_at (24 h): 19.2 fold
- Fold change BCL2-associated athanogene 2 (BAG-2) 209406_at (24 h): −4.4 fold
- Fold change BCL2-interacting killer (apoptosis-inducing) (BP4, NBK, BIP1) 205780_at (24 h): 15.5 fold
- Fold change BCL2-like 1 (BCL2L1) 206665_s_at (24 h): −2.0 fold
- Fold change BH3 interacting domain death agonist (BID) 204493_at (24 h): −4.6 fold
- Fold change Cyclin A2 (CCN1, CCNA) 203418_at (24 h): −13.3 fold
- Fold change Cyclin-dependent kinase inhibitor 2D (p19, inhibits CDK4) (INK4D) 210240_s_at (24 h): 2.0 fold
- Fold change DEC1-anti apoptosis (BHLHB2) 201169_s_at (24 h): −1.9 fold
- Fold change Diphtheria toxin receptor (heparin-binding epidermal growth factor-like growth factor) (DTR) 203821_at (24 h): 3.2 fold
- Fold change Early growth response 1 (TIS8, NGFI-A, KROX-24, ZIF-268) 201694_s_at (24 h): 4.6 fold
- Fold change GMCL germ cell-less homolog (Drosophila) (GMCL) 218458_at (24 h): 2.3 fold
- Fold change Katanin p80 (WD40-containing) subunit B 1 (KAT) 203163_at (24 h): 2.9 fold
- Fold change NACHT, leucine rich repeat and PYD containing 1 (PP1044) 218380_at (24 h): 22.7 fold
- Fold change Paternally expressed Gene 10 (PEG10) 212092_at (24 h): 7.0 fold
- Fold change Paternally expressed Gene 10 (PEG10) 212094_at (24 h): 6.5 fold
- Fold change Protein regulator of cytokinesis 1 (PRC1) 218009_s_at (24 h): −5.1 fold
- Fold change SKAP55 protein 216899_s_at (24 h): 4.0 fold
- Fold change Secreted frizzled-related protein 1 (FRP, SARP2) 202036_s_at (24 h): 4.5 fold
- Fold change Secreted frizzled-related protein 1 (FRP, SARP2) 202037_s_at (24 h): 4.4 fold
- Fold change Serine/threonine kinase 6 (AIK) 208079_s_at (24 h): −8.3 fold
- Fold change Tribbles homolog 3a (TRIB3) 218145_at (24 h): −10.1 fold
- Fold change Tumor necrosis factor receptor superfamily, member 6 (TNFRSF6) 215719_x_at (24 h): −4.8 fold
- Fold change Tumor necrosis factor receptor superfamily, member 6 (TNFRSF6) 216252_x_at (24 h): −5.6 fold
- Fold change Tumor protein p53 (Li-Fraumeni syndrome) 201746_at (24 h): −7.1 fold
- Fold change Tumor protein p53 (Li-Fraumeni syndrome) 211300_s_at (24 h): −7.3 fold
- Fold change member of the N-myc downregulated gene family (NDRG4) 209159_s_at (24 h): 4.5 fold
- NF—Y gene expression in response to LAQ824 treatment (A549 cells, DNA microarray analysis): significantly up-regulated
